Source: DBAASP
In brackets after ≈: the same amount, converted by molar mass. Values belong to the molecule of their own block, whether it stands above or below them.

Assays:
Assay in all cases: ≥ marks a high value that may be exact or a test limit, other limits are often not marked, values filed in µg/mL are converted to µM
[1] = tested on: Pseudomonas aeruginosa ATCC 27853
[2] = tested on: Staphylococcus aureus ATCC 25923
[3] = tested on: Staphylococcus aureus ATCC 43300
Escherichia coli UB1005 = tested on: Escherichia coli UB1005
Escherichia coli K88 = tested on: Escherichia coli K88
[4] = tested on: Salmonella enterica subsp. enterica serovar Pullorum ATCC 7913
Escherichia coli K99 = tested on: Escherichia coli K99
Escherichia coli 078 = tested on: Escherichia coli 078
[5] = tested on: Salmonella enterica subsp. enterica serovar Typhimurium C77-31
[6] = tested on: Candida tropicalis CGMCC 2.1975
[7] = tested on: Staphylococcus epidermidis ATCC 12228
[8] = tested on: Salmonella enterica subsp. enterica serovar Typhimurium ATCC 14028
[9] = tested on: Candida parapsilosis CGMCC 2.3989
[10] = tested on: Micrococcus luteus ATCC 4698
Escherichia coli MG1655 = tested on: Escherichia coli MG1655
[11] = tested on: Pseudomonas aeruginosa ATCC 10145
[12] = tested on: Klebsiella pneumoniae ATCC 700603
[13] = tested on: Escherichia coli DH5alpha
Staphylococcus xylosus = tested on: Staphylococcus xylosus
[14] = tested on: Legionella pneumophila Lens
[15] = tested on: Staphylococcus aureus USA 100
[16] = tested on: Escherichia coli ATCC 25922
[17] = tested on: Staphylococcus epidermidis KCTC 1917
[18] = tested on: Staphylococcus aureus KCTC 1621
[19] = tested on: Staphylococcus aureus USA 300
[20] = tested on: Pseudomonas aeruginosa ATCC 9027
[21] = tested on: Escherichia coli KCTC 1682
[22] = tested on: Pseudomonas aeruginosa KCTC 1637
[23] = tested on: Candida albicans ATCC 90028

SMILES: CC[C@H](C)[C@H](NC(=O)[C@H](CCCN=C(N)N)NC(=O)[C@H](C)NC(=O)[C@H](C)N)C(=O)N[C@H](C(=O)N[C@@H](CC(C)C)C(=O)N[C@@H](CCCN=C(N)N)C(=O)N[C@@H](Cc1c[nH]c2ccccc12)C(=O)N[C@@H](Cc1ccccc1)C(=O)N[C@@H](CCCN=C(N)N)C(=O)N[C@@H](CCCN=C(N)N)C(N)=O)[C@@H](C)CC [AARIILRWFRR]
MIC [1]: 8 µM (≈ 11.7 µg/mL)
MIC [2]: 8 µM (≈ 11.7 µg/mL)
MIC [3]: 8 µM (≈ 11.7 µg/mL)
MIC (Escherichia coli UB1005): 2 µM (≈ 2.91 µg/mL)
MIC (Escherichia coli K88): 2 µM (≈ 2.91 µg/mL)
MIC [4]: 4 µM (≈ 5.83 µg/mL)
MIC (Escherichia coli K99): 2 µM (≈ 2.91 µg/mL)
MIC (Escherichia coli 078): 1.37 µM (≈ 2 µg/mL)
MIC [5]: 4 µM (≈ 5.83 µg/mL)
MIC [6]: 4 µM (≈ 5.83 µg/mL)
MIC [7]: 2 µM (≈ 2.91 µg/mL)
MIC [8]: 4 µM (≈ 5.83 µg/mL)
MIC [9]: 4 µM (≈ 5.83 µg/mL)

SMILES: CC(C)C[C@@H]1NC(=O)[C@H](CCCN=C(N)N)NC(=O)[C@H](CCCCN)NC(=O)[C@H](Cc2c[nH]c3ccccc23)NC(=O)CNC(=O)CNC(=O)[C@@H](N)CSSC[C@@H](C(=O)O)NC(=O)[C@H](CCCN=C(N)N)NC1=O [CGGWKRLRC]
MIC [10]: 13 µM (≈ 14 µg/mL)

SMILES: CC(C)C[C@H](NC(=O)[C@H](Cc1ccc(O)cc1)NC(=O)[C@H](Cc1cnc[nH]1)NC(=O)[C@H](CCCCN)NC(=O)[C@H](CC(C)C)NC(=O)[C@H](C)NC(=O)[C@H](CC(C)C)NC(=O)[C@H](CCCCN)NC(=O)CNC(=O)[C@@H](NC(=O)[C@@H](NC(=O)[C@H](CCCCN)NC(=O)[C@@H](NC(=O)[C@H](CCC(=O)O)NC(=O)[C@H](C)NC(=O)[C@H](CCCCN)NC(=O)[C@H](CCCCN)NC(=O)[C@H](CC(C)C)NC(=O)[C@H](CC(C)C)NC(=O)[C@@H](NC(=O)[C@H](CCCCN)NC(=O)[C@H](Cc1c[nH]c2ccccc12)NC(=O)CN)[C@@H](C)O)C(C)C)[C@@H](C)O)C(C)C)C(=O)O [GWKTLLKKAEVKTVGKLALKHYL]
MIC (Escherichia coli MG1655): 9.3 µM (≈ 24.4 µg/mL)
MIC [2]: 2.32 µM (≈ 6.09 µg/mL)
MIC [11]: 0.29 µM (≈ 0.761 µg/mL)
MIC [12]: > 9.3 µM

SMILES: CC[C@H](C)[C@H](NC(=O)[C@H](CCCCN)NC(=O)[C@H](CCCCN)NC(=O)[C@@H](N)CCCCN)C(=O)N[C@H](C(=O)N[C@H](C(=O)N[C@H](C(=O)N[C@H](C(=O)N[C@@H](CCCCN)C(=O)N[C@@H](CCCCN)C(=O)N[C@@H](CCCCN)C(=O)O)[C@@H](C)CC)[C@@H](C)CC)[C@@H](C)CC)[C@@H](C)CC [KKKIIIIIKKK]
MIC [13]: 8 µM (≈ 10.8 µg/mL)
MIC (Staphylococcus xylosus): 0.5 µM (≈ 0.676 µg/mL)

SMILES: CC(C)[C@H](NC(=O)[C@H](CCCCN)NC(=O)[C@H](CCCCN)NC(=O)[C@@H](N)CCCCN)C(=O)N[C@H](C(=O)N[C@H](C(=O)N[C@H](C(=O)N[C@H](C(=O)N[C@@H](CCCCN)C(=O)N[C@@H](CCCCN)C(=O)N[C@@H](CCCCN)C(=O)O)C(C)C)C(C)C)C(C)C)C(C)C [KKKVVVVVKKK]
MIC [13]: ≥ 64 µM
MIC (Staphylococcus xylosus): 8 µM (≈ 10.3 µg/mL)

The remaining lines, values ahead:

MIC [13]: ≥ 64 µM
MIC (Staphylococcus xylosus): ≥ 64 µM
SMILES: CC[C@H](C)[C@H](NC(=O)[C@@H](N)CC(C)C)C(=O)N[C@@H](CCCCN)C(=O)N[C@@H](CCCN=C(N)N)C(=O)N[C@@H](CCCCN)C(=O)O [LIKRK]

MIC [14]: 1.27 µM (≈ 3.12 µg/mL)
SMILES: CC[C@H](C)[C@H](NC(=O)[C@H](CC(C)C)NC(=O)CNC(=O)[C@H](CCCCN)NC(=O)[C@@H](NC(=O)[C@@H](NC(=O)[C@H](CCC(=O)O)NC(=O)[C@@H](NC(=O)[C@@H](NC(=O)[C@H](CCCCN)NC(=O)[C@H](C)NC(=O)[C@@H](NC(=O)[C@@H](NC(=O)[C@H](CC(=O)O)NC(=O)[C@H](C)NC(=O)[C@@H](N)CCSC)C(C)C)[C@@H](C)CC)[C@@H](C)CC)C(C)C)[C@@H](C)CC)C(C)C)C(=O)N[C@@H](CC(=O)O)C(=O)N[C@@H](CCC(N)=O)C(=O)N[C@@H](Cc1ccccc1)C(=O)N[C@H](C(=O)N[C@@H](CCC(N)=O)C(=O)N[C@@H](CCCCN)C(=O)O)[C@@H](C)O [MADVIAKIVEIVKGLIDQFTQK]

MIC [14]: 0.94 µM (≈ 2.32 µg/mL)
SMILES: CC[C@H](C)[C@H](NC(=O)[C@H](CC(C)C)NC(=O)[C@H](CCCCN)NC(=O)[C@H](CCCCN)NC(=O)[C@@H](NC(=O)[C@@H](NC(=O)[C@H](CCC(=O)O)NC(=O)[C@@H](NC(=O)[C@@H](NC(=O)[C@H](CCCCN)NC(=O)[C@H](C)NC(=O)[C@@H](NC(=O)[C@@H](NC(=O)CNC(=O)[C@H](C)NC(=O)[C@@H](N)CCSC)C(C)C)[C@@H](C)CC)[C@@H](C)CC)C(C)C)[C@@H](C)CC)C(C)C)C(=O)N[C@@H](CC(=O)O)C(=O)N[C@@H](CCC(N)=O)C(=O)N[C@@H](Cc1ccccc1)C(=O)N[C@H](C(=O)N[C@@H](CCC(N)=O)C(=O)N[C@@H](CCCCN)C(=O)O)[C@@H](C)O [MAGVIAKIVEIVKKLIDQFTQK]

MIC [14]: 3.7 µM (≈ 9.21 µg/mL)
SMILES: CC[C@H](C)[C@H](NC(=O)[C@H](CC(C)C)NC(=O)[C@H](CC(=O)O)NC(=O)[C@@H](NC(=O)[C@@H](NC(=O)[C@H](Cc1ccccc1)NC(=O)[C@H](CCC(N)=O)NC(=O)[C@@H](N)CCSC)[C@@H](C)CC)[C@@H](C)O)C(=O)NCC(=O)N[C@@H](CCCCN)C(=O)N[C@@H](C)C(=O)N[C@H](C(=O)N[C@@H](CC(=O)O)C(=O)N[C@@H](Cc1ccccc1)C(=O)N[C@@H](Cc1ccccc1)C(=O)N[C@@H](CCCCN)C(=O)NCC(=O)N[C@@H](CC(C)C)C(=O)N[C@@H](Cc1ccccc1)C(=O)NCC(=O)N[C@@H](CC(N)=O)C(=O)N[C@@H](CCCCN)C(=O)O)C(C)C [MQFITDLIGKAVDFFKGLFGNK]

MIC [14]: 5.08 µM (≈ 12.5 µg/mL)
SMILES: CC[C@H](C)[C@H](NC(=O)[C@H](C)NC(=O)[C@H](CCCCN)NC(=O)[C@@H](NC(=O)[C@@H](NC(=O)[C@H](CCC(=O)O)NC(=O)[C@@H](NC(=O)[C@@H](NC(=O)[C@H](CCCCN)NC(=O)CNC(=O)[C@H](CC(C)C)NC(=O)[C@@H](NC(=O)[C@H](CC(=O)O)NC(=O)[C@H](CCC(N)=O)NC(=O)[C@H](Cc1ccccc1)NC(=O)[C@@H](NC(=O)[C@H](CCC(N)=O)NC(=O)[C@@H](N)CCSC)[C@@H](C)O)[C@@H](C)CC)C(C)C)[C@@H](C)CC)C(C)C)[C@@H](C)CC)C(=O)N[C@H](C(=O)N[C@@H](CC(=O)O)C(=O)N[C@@H](C)C(=O)N[C@@H](CCCCN)C(=O)O)C(C)C [MQTFQDILGKVIEVIKAIVDAK]

MIC [13]: 8 µM (≈ 14.7 µg/mL)
MIC (Staphylococcus xylosus): 0.5 µM (≈ 0.917 µg/mL)
SMILES: CC[C@H](C)[C@H](NC(=O)[C@H](CC(C)C)NC(=O)[C@@H](NC(=O)[C@H](CC(C)C)NC(=O)[C@@H](NC(=O)[C@H](CC(C)C)NC(=O)[C@H](CCCCN)NC(=O)[C@H](CCCN=C(N)N)NC(=O)[C@H](CCCCN)NC(=O)[C@@H](N)CCCN=C(N)N)[C@@H](C)CC)[C@@H](C)CC)C(=O)N[C@@H](CCCCN)C(=O)N[C@@H](CCCN=C(N)N)C(=O)N[C@@H](CCCCN)C(=O)N[C@@H](CCCN=C(N)N)C(=O)O [RKRKLILILIKRKR]

MIC [2]: 7.18 µM (≈ 7.49 µg/mL)
MIC [15]: 25 µM (≈ 26.1 µg/mL)
MIC [16]: 7.18 µM (≈ 7.49 µg/mL)
MIC [17]: 7.65 µM (≈ 7.99 µg/mL)
MIC [18]: 7.65 µM (≈ 7.99 µg/mL)
MIC [19]: 25 µM (≈ 26.1 µg/mL)
MIC [20]: > 100 µM
MIC [21]: 3.83 µM (≈ 4 µg/mL)
MIC [22]: 15.3 µM (≈ 16 µg/mL)
MIC [23]: ≥ 100 µM
SMILES: NC(=O)[C@H](CCCN=C(N)N)NC(=O)[C@H](Cc1c[nH]c2ccccc12)NC(=O)[C@H](CCCN=C(N)N)NC(=O)[C@H](Cc1c[nH]c2ccccc12)NC(=O)[C@H](CCCN=C(N)N)NC(=O)[C@@H](N)Cc1c[nH]c2ccccc12 [WRWRWR]
